Reference: paper PMC8844822, “SARM1 is a multi-functional NAD(P)ase with prominent base exchange activity, all regulated bymultiple physiologically relevant NAD metabolites” (iScience, 2022)

How the values were obtained:
[1] = biological target: T1, Aplysia californica ADP ribosyl cyclase (Aplysia californica, UniProt P29241); conditions: for use as substrate (consumption rate): dinucleotide 250 μM, 25°C, 2–6 h; for effect of metal ion on activity: metal ions 1 mM
T1 sequence (P29241 25-282): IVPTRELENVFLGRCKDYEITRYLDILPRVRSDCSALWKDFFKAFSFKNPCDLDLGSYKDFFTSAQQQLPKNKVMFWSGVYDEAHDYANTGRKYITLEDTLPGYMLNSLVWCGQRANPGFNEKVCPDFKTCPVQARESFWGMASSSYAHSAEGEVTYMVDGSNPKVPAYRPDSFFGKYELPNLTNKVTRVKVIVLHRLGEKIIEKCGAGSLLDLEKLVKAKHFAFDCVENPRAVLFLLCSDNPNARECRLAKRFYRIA
Experimental: (§1) hSARM1 species were routinely assayed by the NAD/NADH-Glo^TM Assay (Promega) while both Aplysia cyclase and CD38 were assayed by fluorometry using ϵNAD ([Orsomando et al., 2000]). […] Other reagents used in addition to, or in place of those above are detailed in text or in figure legends, for example metal ions, free bases, dinucleotide analogues, mononucleotides, and ribosides. Assays were all carried out at 25°C except for temperature studies. Reactions were stopped by HClO4/K2CO3 and analysed by C18-HPLC as reported ([Mori et al., 2014]). Only the acid labile NADH and NADPH were treated with 1 N NaOH and neutralized using 1:1 vol of 1.73 M KH2CO3 while the highly hydrophobic metabolites vacor, VAD, VMN and VR, were analysed by a modified C18-HPLC method ([Buonvicino et al., 2018]). Reaction products were quantified from peak areas (see Figure 2A) based on coelution with standards (except for cyclic products from NAD analogues that were not available and were attributed based on UV-spectra and retention times as predicted). Rates were calculated as follows. Hydrolysis and cyclization were measured from product generation from the respective individual dinucleotide substrate used, e.g., free and cyclic ADP-ribosyl moieties from NAD (Figure 1B). A basal value for hydrolysis/cyclization was taken as sum of these latter two products. In addition to that value, base exchange or transglycosidation was calculated from the expected dinucleotide analog formed in the presence of the corresponding free base, e.g., AcPyrAD from AcPyr and NAD.
(§2) The kinetic parameters were calculated from initial rates obtained from replicates via best-fitting analysis using the following Equation 1 for CD38 and Aplysia cyclase, or Equation 2 for hSARM1 SAM-TIR, or Equation 3 for hSARM1 full length(Equation 1) V =Vmax[S]/Km+[S] […] In that case, the resulting single curves were fit to Equation 3 as above to evaluate any competition between NMN and the substrate used (see Table 1).

hSARM1 full length [2] = biological target: T2, hSARM1 full length (Homo sapiens, UniProt Q6SZW1); assay: NAD(P)ase activity by HPLC (kinetics, substrates, metal ions); assay type: biochemical; conditions: hSARM1; for use as substrate (consumption rate): dinucleotide 250 μM, 25°C, 2–6 h; for effect of metal ion on activity: metal ions 1 mM
T2 construct: Human recombinant SARM1 full length proteins (wild-type and E642A mutant); made in house
T2 sequence (Q6SZW1 28-724): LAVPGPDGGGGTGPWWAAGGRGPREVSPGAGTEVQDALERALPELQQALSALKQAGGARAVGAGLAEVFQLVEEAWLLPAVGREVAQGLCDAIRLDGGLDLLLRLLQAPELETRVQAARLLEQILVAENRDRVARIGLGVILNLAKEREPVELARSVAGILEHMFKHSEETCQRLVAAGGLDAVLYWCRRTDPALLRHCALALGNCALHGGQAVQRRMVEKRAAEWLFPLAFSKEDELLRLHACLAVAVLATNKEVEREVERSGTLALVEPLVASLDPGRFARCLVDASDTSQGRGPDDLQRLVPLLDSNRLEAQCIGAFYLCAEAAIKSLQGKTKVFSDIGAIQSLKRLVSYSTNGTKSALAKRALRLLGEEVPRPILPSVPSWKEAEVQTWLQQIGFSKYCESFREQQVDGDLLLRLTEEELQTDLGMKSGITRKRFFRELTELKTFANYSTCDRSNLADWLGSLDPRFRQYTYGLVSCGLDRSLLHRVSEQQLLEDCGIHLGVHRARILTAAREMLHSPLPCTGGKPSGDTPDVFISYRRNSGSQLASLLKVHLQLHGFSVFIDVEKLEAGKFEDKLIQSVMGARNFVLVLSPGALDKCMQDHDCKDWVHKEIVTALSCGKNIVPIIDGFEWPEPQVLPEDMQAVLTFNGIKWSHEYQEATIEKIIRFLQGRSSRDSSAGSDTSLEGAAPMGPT
Experimental: as §1, §2

hCD38 [3] = biological target: T3, hCD38 (Homo sapiens, UniProt P28907); assay: as above; assay type: biochemical; conditions: for use as substrate (consumption rate): dinucleotide 250 μM, 2–6 h; for effect of metal ion on activity: metal ions 1 mM
T3 construct: a soluble fragment Val43-Ile300 with 6x-His tag at C terminus; 6xHis (C); purchased R&D Systems
T3 sequence (P28907 43-300): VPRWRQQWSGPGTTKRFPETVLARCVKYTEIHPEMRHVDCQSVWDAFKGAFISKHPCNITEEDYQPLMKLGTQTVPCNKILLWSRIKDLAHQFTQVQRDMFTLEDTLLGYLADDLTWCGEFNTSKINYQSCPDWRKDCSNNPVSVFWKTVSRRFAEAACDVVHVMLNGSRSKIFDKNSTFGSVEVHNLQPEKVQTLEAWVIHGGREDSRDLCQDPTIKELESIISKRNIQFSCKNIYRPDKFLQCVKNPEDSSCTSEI
Experimental: as §1, §2

hSARM1 full length [4] = biological target: T2, hSARM1 full length; assay: Base exchange reactions at neutral pH (HPLC); assay type: biochemical; conditions: for increase of all hSARM1 activities by trigger (plateau): hSARM1 full length, NMN 0.2 mM or VMN 0.05 mM, NAD or NADP 250 μM with or without bases
Experimental: (§3) Multiple time stops from individual assays as above were analyzed for linearity, then extents of hydrolysis (white bars), cyclization (red bars), or base exchange (black bars) were calculated from each corresponding product as shown in Figure 1B and STAR methods. […] See also Figures S3–S5, and Table S1
as §1

hCD38 [5] = biological target: T3, hCD38; assay: Base exchange reactions at neutral pH (HPLC); assay type: biochemical; conditions: NADP […] alone or + AcPyr 2 mM / Vacor 0.5 mM / Na 2 mM
Experimental: as §3, §1

[6] = hSARM1 full length +NMN 0.2 mM, NAD […]
[7] = hSARM1 full length +NMN 0.2 mM, NADP […]
[8] = hSARM1 full length +VMN 0.05 mM, NAD […]
[9] = hSARM1 full length +VMN 0.05 mM, NADP […]

Compound: NC(=O)C1=CN([C@@H]2O[C@H](COP(=O)(O)OP(=O)(O)OC[C@H]3O[C@@H](n4cnc5c(N)ncnc54)[C@H](O)[C@@H]3O)[C@@H](O)[C@H]2O)C=CC1 [NADH]
- use as substrate (consumption rate) [1]: negligible usage
- use as substrate (consumption rate) (hSARM1 full length [2]): negligible usage
- use as substrate (consumption rate) (hCD38 [3]; hCD38, 25°C): negligible usage

Compound: NC(=O)C1=CN([C@@H]2O[C@H](COP(=O)(O)OP(=O)(O)OC[C@H]3O[C@@H](n4cnc5c(N)ncnc54)[C@H](OP(=O)(O)O)[C@@H]3O)[C@@H](O)[C@H]2O)C=CC1 [NADPH]
- use as substrate (consumption rate) [1]: negligible usage
- use as substrate (consumption rate) (hSARM1 full length [2]): negligible usage
- use as substrate (consumption rate) (hCD38 [3]; hCD38, 25°C): negligible usage

Compound: NC(=O)c1ccc[n+]([C@@H]2O[C@H](COP(=O)([O-])OP(=O)(O)OC[C@H]3O[C@@H](n4cnc5c(=O)[nH]c(N)nc54)[C@H](O)[C@@H]3O)[C@@H](O)[C@H]2O)c1 [NGD, nicotinamide guanine dinucleotide]
- cyclization, share of total substrate consumption (hCD38 [3]; CD38): ~80%

Compound: NC(=O)c1ccc[n+]([C@@H]2O[C@H](COP(=O)([O-])O)[C@@H](O)[C@H]2O)c1 [NMN, nicotinamide mononucleotide]
- cyclization, share of products (hSARM1 full length [4]; [6]): 9.51%
- hydrolysis, share of products (hSARM1 full length [4]; [6]): 90.49%
- rate (hSARM1 full length [4]; hSARM1 full length +NMN 0.2 mM, NAD […] alone or + free base): 187.9 ±26.9 mU/mg
- rate (relative fold) (hSARM1 full length [4]; hSARM1 full length +NMN 0.2 mM, NAD […], relative to NAD alone without trigger): 8.61±1.23 fold
- cyclization, share of products (hSARM1 full length [4]; [7]): ~ 0.05%
- hydrolysis, share of products (hSARM1 full length [4]; [7]): 99.95%
- rate (hSARM1 full length [4]; hSARM1 full length +NMN 0.2 mM, NADP […] alone or + free base): 117.3 ±4.72 mU/mg
- rate (relative fold) (hSARM1 full length [4]; hSARM1 full length +NMN 0.2 mM, NADP […], relative to NADP alone without trigger): 7.98 ±0.321 fold
- increase of all hSARM1 activities by trigger (plateau) (hSARM1 full length [4]): 8- to 10 fold

Compound: Nc1ncnc2c1ncn2[C@@H]1O[C@H](COP(=O)(O)OP(=O)(O)OC[C@H]2O[C@@H]([n+]3cccc(C(=O)O)c3)[C@H](O)[C@@H]2O)[C@@H](O)[C@H]1O [NaAD, nicotinic acid adenine dinucleotide]
- use as substrate (consumption rate) [1]: negligible usage
- use as substrate (consumption rate) (hSARM1 full length [2]): negligible usage
- use as substrate (consumption rate) (hCD38 [3]; hCD38, 25°C): negligible usage

Compound: Nc1ncnc2c1ncn2[C@@H]1O[C@H](COP(=O)(O)OP(=O)([O-])OC[C@H]2O[C@@H]([n+]3cccc(CNC(=O)Nc4ccc([N+](=O)[O-])cc4)c3)[C@H](O)[C@@H]2O)[C@@H](O)[C@H]1O [VAD, vacor adenine dinucleotide]
- use as substrate (consumption rate) [1]: no activity
- use as substrate (consumption rate) (hSARM1 full length [2]): no activity
- use as substrate (consumption rate) (hCD38 [3]; hCD38, 25°C): no activity

Compound: O=C(NCc1ccc[n+]([C@@H]2O[C@H](COP(=O)(O)O)[C@@H](O)[C@H]2O)c1)Nc1ccc([N+](=O)[O-])cc1 [VMN, vacor mononucleotide]
- cyclization, share of products (hSARM1 full length [4]; [8]): 8.79%
- hydrolysis, share of products (hSARM1 full length [4]; [8]): 91.21%
- rate (hSARM1 full length [4]; hSARM1 full length +VMN 0.05 mM, NAD […] alone or + free base): 210.1 ±14.4 mU/mg
- rate (relative fold) (hSARM1 full length [4]; hSARM1 full length +VMN 0.05 mM, NAD […], relative to NAD alone without trigger): 9.63 ±0.660 fold
- cyclization, share of products (hSARM1 full length [4]; [9]): 0.64%
- hydrolysis, share of products (hSARM1 full length [4]; [9]): 99.36%
- rate (hSARM1 full length [4]; hSARM1 full length +VMN 0.05 mM, NADP […] alone or + free base): 138.3 ±1.72 mU/mg
- rate (relative fold) (hSARM1 full length [4]; hSARM1 full length +VMN 0.05 mM, NADP […], relative to NADP alone without trigger): 9.41 ±0.117 fold
- increase of all hSARM1 activities by trigger (plateau) (hSARM1 full length [4]): 8- to 10 fold

Compound: [Cu+2] [copper]
- effect of metal ion on activity [1]: clear inhibition
- effect of metal ion on activity (hSARM1 full length [2]): clear inhibition
- effect of metal ion on activity (hCD38 [3]; hCD38): clear inhibition

Compound: [Mg] [magnesium]
- effect of metal ion on activity [1]: no effect
- effect of metal ion on activity (hSARM1 full length [2]): no effect
- effect of metal ion on activity (hCD38 [3]; hCD38): no effect

Compound: [Zn+2] [zinc]
- effect of metal ion on activity [1]: clear inhibition
- effect of metal ion on activity (hSARM1 full length [2]): clear inhibition
- effect of metal ion on activity (hCD38 [3]; hCD38): clear inhibition

Compound: NC(=O)c1ccc[n+]([C@H]2O[C@H](COP(=O)([O-])OP(=O)(O)OC[C@H]3O[C@@H](n4cnc5c(N)ncnc54)[C@H](O)[C@@H]3O)[C@@H](O)[C@H]2O)c1 [αNAD, alpha-NAD]
- use as substrate (consumption rate) [1]: no activity
- use as substrate (consumption rate) (hSARM1 full length [2]): no activity
- use as substrate (consumption rate) (hCD38 [3]; hCD38, 25°C): no activity

Compound: nicotinamide adenine dinucleotide phosphate [NADP]
- Km ([1]; substrate as labelled): 384 ± 0.17 µM
- Vmax ([1]; substrate as labelled): 20,043 ± 724 mU/mg
- rate (hCD38 [5]): 3521 ±605 mU/mg
- Vmax (hCD38 [3]; hCD38, substrate as labelled): 4376 ± 24.1 mU/mg
- Km (hCD38 [3]; hCD38, substrate as labelled, 25°C, pH 7.5): 11.7 ± 0.88 µM

Compound: nicotinic acid adenine dinucleotide phosphate [NaADP]
- use as substrate (consumption rate) [1]: negligible usage
- use as substrate (consumption rate) (hSARM1 full length [2]): negligible usage
- use as substrate (consumption rate) (hCD38 [3]; hCD38, 25°C): negligible usage
